In paper PMC8171087, “Pharmacological inhibition of noncanonical EED-EZH2 signaling overcomes chemoresistance in prostate cancer” (Theranostics, 2021):

Target: embryonic ectoderm development (EED) (Homo sapiens, UniProt O75530)
Sequence (O75530 2-441): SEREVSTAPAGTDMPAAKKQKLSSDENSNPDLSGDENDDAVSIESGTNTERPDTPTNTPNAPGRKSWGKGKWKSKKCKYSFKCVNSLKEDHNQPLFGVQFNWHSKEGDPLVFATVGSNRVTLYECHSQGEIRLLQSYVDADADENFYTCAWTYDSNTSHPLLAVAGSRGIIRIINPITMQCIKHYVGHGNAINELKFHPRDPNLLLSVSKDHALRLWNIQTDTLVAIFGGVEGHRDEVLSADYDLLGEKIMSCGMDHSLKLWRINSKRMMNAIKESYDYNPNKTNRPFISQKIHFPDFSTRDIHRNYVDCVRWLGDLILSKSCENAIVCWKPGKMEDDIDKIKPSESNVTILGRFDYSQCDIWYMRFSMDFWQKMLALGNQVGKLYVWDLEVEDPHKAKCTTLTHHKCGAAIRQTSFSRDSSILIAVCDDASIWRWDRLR

SMILES: CCOP(=O)(OCC)C(NC(=O)[C@H](Cc1ccc(-c2ccccc2)cc1)NC(=O)/C=C/c1ccc(-c2ccccc2)cc1)P(=O)(OCC)OCC [LG1980]
- Kd: 2710 nM
